SMILES strings stand for the structures. Where a name gives a salt, the structure may show the parent alone.

The results in this text go back to patent publication US9707228B2, “Dry powder formulation” (Agency for Science, Technology and Research, priority 2012, dated 2017).

This test deals with Pseudomonas aeruginosa. The test can be described thus: MIC determination via the microdilution method. Type of test: cell-based. The following applies: read-out: minimum inhibitory concentration (MIC). The text has this:
Ciprofloxacin hydrochloride and gatifloxacin hydrochloride were supplied by Junda Pharmaceutical Co. Ltd (of Guangzhou of China). The aqueous solution of ciprofloxacin hydrochloride and gatifloxacin hydrochloride (at a weight ratio of 1:2.5) was obtained by dissolving both drugs together in water. The weight ratio of the individual quinolone in the solution (as well as in the resultant spray-dried particle) was based on the quinolone's minimum inhibitory concentration (MIC). The MIC was experimentally determined and a ratio of the quinolones was obtained as a guideline in developing the final workable proportion. The quinolones' MIC values were important as they provided preliminary guidance on the required therapeutic dose of each quinolone in the binary (SD-CIP/GAT) powder formulation (i.e. combination ratios). The MICs of the various quinolones for the bacteria Pseudomonas aeruginosa different bacteria were determined via the microdilution method and used to determine the desired binary drug proportions. For the bacteria Pseudomonas aeruginosa, since MICCIP:MICGAT is 1:2 (actual values are 0.25 μg/ml:0.5 μg/ml), the binary formulation was composed of CIP:GAT in the ratio of 1:2. […]
Background: In broth dilution the organism is exposed to a series of concentrations in liquid medium.

For `O=C(O)c1cn(C2CC2)c2cc(N3CCNCC3)c(F)cc2c1=O` [CIP, ciprofloxacin hydrochloride], the MIC worked out at 0.25 µg/mL.

As for `COc1c(N2CCNC(C)C2)c(F)cc2c(=O)c(C(=O)O)cn(C3CC3)c12` (centres unmarked) [GAT, gatifloxacin hydrochloride], the MIC stood at 0.5 µg/mL.
